From patent publication US20060183773A1, “Uses of methylphenidate derivatives” (priority 2005, published 2006)

What was measured:
Assay type in all cases: cell-based, human
[1] = tested on: MEKK1; test: Custom AntibodyArray, TRiPS cells: MEKK1; conditions: 15 μg/ml, 30 minutes
Procedure: (§1) Day 18 TRiPS cells, 1×10^6, were incubated for 30 minutes at 37° C., either with nothing added (“Nil”), with 1 μl CD3/CD28 Dynabeads (Dynal, Oslo, Norway) (“CD3/CD28 beads”) per 100,000 cells, or with CD3/CD28 beads and 15 μg/ml of the compound of formula II (Cpd II). After the incubation, the cells were lysed in Cell-Lytic Mammalian Cell Extraction Reagent (Sigma). After centrifugation to pellet cellular debris, the supernatants (cell extracts) were obtained.
(§2) The cell extracts (supernatants) were then analyzed using a Custom AntibodyArray™ manufactured by Hypromatrix Inc., Worcester, Mass., following the manufacturer's instructions. The Custom AntibodyArray™ is a nylon membrane blotted with antibodies to the proteins listed below. Briefly, the cell extracts were incubated with duplicate Custom AntibodyArray™'s for 2 hours at room temperature with slow shaking, followed by three washes with Tris buffer (150 mM NaCl, 25 mM Tris, 0.05% Tween-20, pH 7.5). HRP-labeled antibodies specific for phosphorylated-tyrosine, phosphorylated-serine and phosphorylated-threonine in Tris buffer were added, and the arrays incubated for 2 hours. After three more washes with Tris buffer, a peroxidase-reactive luminescent substrate was added. The arrays were visualized by exposure to X-ray film. Densitometry of the X-ray films was measured by scanning and computer analysis.

[2] = tested on: IL-8; test: IL-8 release by TNFα-stimulated HUVECs, ELISA; conditions: HUVECs lot 8710, no TNFα, no additives 207.15
[3] = tested on: peripheral blood lymphocytes (PBL); test: Cell clumping of PHA-stimulated PBL (microscopy); conditions: PBL of donor GR283; 5 μg/ml PHA; compound 5, 15, 50 μg/ml; 24 h pre-incubation + 72 h
Procedure: Whole blood was drawn from GR283, a human volunteer with known allergies, into a glass vacutainer tube containing no anticoagulant. This blood was allowed to clot, and the serum was removed by centrifugation and then heat inactivated by placing it in a water bath at 56° C. for 30 minutes. Whole blood from GR283 was also drawn into a glass vacutainer tube containing heparin and used for peripheral blood lymphocytes (PBL) isolation as follows. Whole blood was layered over room temperature Histopaque 1077 solution and centrifuged at 2000 rpm for 15 minutes at room temperature. Cells at the plasma-Histopaque interface were then removed and washed with culture medium (IMDM medium with 10% heat-inactivated GR283 serum plus 1% penicillin/streptomycin) at 37° C.
The compound of formula II (see above) and methylphenidate (both obtained from Dr. Jeffrey D. Winkler, University of Pennsylvania, Philadelphia, Pa.) in culture medium were added to wells of a 96-well plate to give final concentrations of 5 μg/ml, 15 μg/ml and 50 μg/ml of the compound of formula II and of methylphenidate. […] Then, GR283's PBL in culture medium were added to the wells to give a final concentration of 150,000 cells per well, and the plates were incubated at 37° C., 5% CO2 for 24 hours. […]

[4] = tested on: TNFα; test: TNFα release from LPS-stimulated THP-1 monocytes, ELISA; conditions: THP-1, LPS 200 ng/ml, Cpd II 15 μg/ml, Dex 10 μM
Procedure: THP-1 is a monocyte cell line obtained from American Type Culture Collection (ATCC) (catalog no. TIB-202). […] After 1 hour, lipopolysaccharide (LPS) (obtained from Sigma) was added to the cultures to give a final concentration of 200 ng/ml, and the cells were then incubated for an additional 4 hours or for an additional 24 hours. After the incubation, the cells were centrifuged, and the supernatants were collected. The concentrations of IL-8 and TNFα in the supernatants were determined by ELISA.
The TNFα ELISA was performed as described in Example 2.

[5] = tested on: IL-8; test: IL-8 release by LPS-stimulated HUVECs, ELISA; conditions: for IL-8: LPS 200 ng/ml overnight + 15 μg/ml
Procedure: Passage 4 (i.e., four cell population doublings) human umbilical vein endothelial cells (HUVECs), human source lot number 9713 (obtained from ATCC), were put into the wells of a 48-well tissue culture plate at 20,000 cells/well in 500 μl of endothelial growth medium-2 (EGM-2) complete medium (but without serum or ascorbate) (obtained from Cambrex) supplemented with ITSS (insulin, transferrin and sodium selenite) (obtained from Sigma). Also, passage 4 HUVECs, human source lot number 7016 (obtained from ATCC), were put into the wells of a 48-well tissue culture plate at 20,000 cells/well in 500 μl of EGM-2 complete medium (but without serum or ascorbate) supplemented with ITSS. The following additives were added to the cells: water (vehicle control) and 15 μg/ml of the compound of formula II (Cpd II). After incubation for 1 hour at 37 ° C. and 5% CO2, lipopolysaccharide (LPS) (obtained from Sigma) was added to give a final concentration of 200 ng/ml, and the cells were incubated overnight at 37° C. and 5% CO2. After this incubation, the supernatants were collected, and the amount of IL-8 in the supernatants determined by ELISA as described in Example 4.

[6] = tested on: TNFα; test: TNFα release by PBL, ELISA; conditions: donor GR191; 5 μg/ml PHA, 72 h; Cpd II 15 and 50 μg/ml, Dex 10 μM; FIG. 7
Procedure: After this incubation, PHA was added to give a final concentration of 5 μg/ml, and the cells were incubated for an additional 72 hours at 37° C., 5% CO2. All cultures were performed in triplicate. Cells were then removed by centrifugation at 1000 rpm for 10 minutes.
The TNFα ELISA was performed as described in Example 2 using matched pair antibodies from Pierce Endogen (2 μg/ml for the coating antibody and 250 ng/ml for the second antibody).

[7] = tested on: STAT2; test: Custom AntibodyArray, TRiPS cells: STAT2; conditions: 15 μg/ml, 30 minutes
Procedure: as §1, §2

[8] = tested on: JNK1; test: Custom AntibodyArray, TRiPS cells: JNK1; conditions: 15 μg/ml, 30 minutes
Procedure: as §1, §2

[9] = tested on: JAK2; test: Custom AntibodyArray, TRiPS cells: JAK2; conditions: 15 μg/ml, 30 minutes
Procedure: as §1, §2

In the case of `COC(=O)C(c1ccc(-c2ccccc2)cc1)C1CCCCN1` (stereo not drawn) [Cpd II], the “Effect of Cpd II on the protein in CD3/CD28 stimulated TRiPS cells” value (“Effect of Cpd II on the protein” for short) [1] is reported as “Decreased level back to basal levels (Nil control)”, the “Mean IL-8” value ([2]; 15 μg/ml) is reported as 400.35 pg/mL and the “Mean IL-8” value ([2]; 30 μg/ml) is reported as 0 pg/mL. For the same molecule, the “cell clumping induced by PHA” value [3] was “reduced the amount of cell clumping induced by 5 μg/ml PHA in a dose-dependent manner”, the inhibition at 15 µg/mL ([4]; Homo sapiens, 24 hours) was 53% and the “Mean TNFα Concentration” value ([4]; 24 hours, LPS alone 138.655) was 65.370 ± 0.891 pg/mL. The “release of TNFα from LPS-stimulated monocytes (in words)” value [4] was “significantly inhibited the release of TNFα”, the IL-8 ([5]; 7016 HUVECs, LPS only 53.3) was “Below detection” and the IL-8 ([5]; 9713 HUVECs, LPS only 485.0) was 49.8 pg/mL. The “IL-8 release by the 7016 HUVECs (in words)” value ([5]; LPS 200 ng/ml + 15 μg/ml) was “complete eliminated IL-8 release”, the “decrease of IL-8 release in the 9713 HUVECs” value ([5]; LPS 200 ng/ml + 15 μg/ml) was 90% and the “release of TNFα from PHA-stimulated PBL” value [6] was “significantly inhibited the release of TNFα”. For the same molecule, the “Effect of Cpd II on the protein” value [7] was “No effect”, the “Effect of Cpd II on the protein” value [8] was “Decreased level back to basal levels (Nil control)” and the “Effect of Cpd II on the protein” value [9] was “Activated”.
